Measurements published in patent US20030203864A1, “Treatment of cancer” (priority 2002, published 2003).
Entries after “also recorded” stand apart in the source; their conditions may differ.

Tests used:
Assay type in all cases: cell-based, human
HMEC-1 cells = experiment: HMEC-1 proliferation assay (Coulter counter); details: 0.4 μM DNA enzyme
Description: HMEC-1 culture and proliferation assay. SV40-transformed HMEC-1 cells were grown in MCDB 131 medium with EGF (10 ng/ml) and hydrocortisone (1 μg/ml) supplements and 10% FBS. […] The cells were quantitated by Coulter counter, 24 h after the addition of serum.

HepG2 cells = experiment: HepG2 cell proliferation (Coulter counter); details: 0.75 μM DNAzyme, 5% FBS, 3 days
Description: HepG2 cells were routinely grown in DMEM, pH 7.4, containing 10% fetal calf serum supplemented with antibiotics. The cells were trypsinized, resuspended in growth medium (to 10,000 cells/200 μl) and 200 μl transferred into sterile 96 well titre plates. Two days subsequently, 180 μl of the culture supernatant was removed, the cells were washed with PBS, pH 7.4, and refed with 180 μl of serum free media. After 6 h, the first transfection of DNAzyme (2 μg/200 μl wall, 0.75 μM final) was performed in tubes containing serum free media using FuGENE6 at a ratio of 1:3 (μg:μl). After 15 min incubation at room temperature, 180 μl of the culture supernantant was replaced with 180 μl of the transfection mix, After 24 h, 180 μl of the supernatant was replaced with 180 μl of new transfection mix, but this time in 5% FBS media. After 3 days, the cells were washed in PBS, pH 7.4, and resuspended by trypsinization in 100 μl trypsin-EDTA. The cells were shaken for approximately 5 min to ensure the cells were in suspension. The entire suspension was placed into 10 ml of Isoton II. That all the cells were transferred was ensured by pipetting Isoton II solution from tubes back into wells several times. Using Isoton II only, background cell number was determined. Each sample was counted three times and used to calculate mean counts and standard errors of each mean.

EGR-1 = experiment: Western blot of EGR-1 in HepG2 cells
Sequence of EGR-1 (P18146 whole entry): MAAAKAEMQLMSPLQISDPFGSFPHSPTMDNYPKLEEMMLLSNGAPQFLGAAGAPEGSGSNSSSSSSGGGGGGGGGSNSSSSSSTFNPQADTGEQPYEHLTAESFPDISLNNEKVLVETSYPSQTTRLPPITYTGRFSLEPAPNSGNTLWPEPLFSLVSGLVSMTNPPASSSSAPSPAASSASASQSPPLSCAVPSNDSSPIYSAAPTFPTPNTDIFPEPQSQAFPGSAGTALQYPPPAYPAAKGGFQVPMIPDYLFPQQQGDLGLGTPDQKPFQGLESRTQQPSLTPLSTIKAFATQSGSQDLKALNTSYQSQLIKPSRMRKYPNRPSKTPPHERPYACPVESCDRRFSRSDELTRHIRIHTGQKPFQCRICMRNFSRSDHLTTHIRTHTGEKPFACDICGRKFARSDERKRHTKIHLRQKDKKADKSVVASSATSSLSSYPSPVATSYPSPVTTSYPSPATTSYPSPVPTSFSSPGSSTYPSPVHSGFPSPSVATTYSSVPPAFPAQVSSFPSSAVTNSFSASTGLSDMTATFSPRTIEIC

DzA: DNAzyme targeting human EGR-1 mRNA (arms hybridize to nts 189-207), 5′-caggggacaGGCTAGCTACAACGAcgttgcggg (DNA CAGGGGACAGGCTAGCTACAACGACGTTGCGGG; DNA, backbone and methylation of C not given here)
HMEC-1 replication (total cell counts) (HMEC-1 cells): inhibited | serum-stimulated HepG2 cell proliferation (HepG2 cells): almost completely suppressed; also recorded: inhibited | EGR-1 expression in HepG2 cells (EGR-1): strongly inhibited
